What was measured:
Type in all cases: in vivo
[1] = system: diamondback moth (Plutella xylostella); assay: Insecticidal effect on diamondback moth (Test Example 1); conditions: for Insecticidal effect, Test Example 1 / Insecticidal effect (Test Example 1), judged from mortality: diamondback moth; for Insecticidal effect (Test Example 1), judged from mortality: judged by the criterion of Test Example 1; for Insecticidal effect on diamondback moth (Test Example 1), judged grade: mortality judged according to the criterion shown in Test Example 1
In short: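 Triplicate groups of 10 insects: eggs laid on Chinese cabbage seedling by adults, seedling immersed then air-dried, kept at 25° C. Day-6 hatch counts gave mortality, rated by criterion.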

[2] = system: common cutworm (Spodoptera Litura); assay: Insecticidal effect on common cutworm (Test Example 2); conditions: 500 ppm, 25° C.; for Insecticidal effect, Test Example 2: cabbage leaf immersed; for Insecticidal effect, Test Example 2 / Insecticidal effect on common cutworm (Test Example 2), judged grade: eight days after inoculation; for Insecticidal effect (Test Example 2), judged from mortality / Insecticidal effect on common cutworm (Test Example 2), judged grade: cabbage leaf dip; for Insecticidal effect (Test Example 2), judged from mortality: 8 days after inoculation; for Insecticidal effect on common cutworm (Test Example 2), judged grade: second-instar larvae
In short: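 2nd-instar larvae on air-dried treatment, closed dish, 25° C; dead/alive counted at day 8. Mortality calculated, graded by criterion. 3 × 10 insects.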

[3] = system: rice leafroller (Cnaphalocrocis medinalis); assay: Insecticidal effect on rice leafroller (Test Example 3); conditions: 500 ppm, 25° C., humidity 70%; for Insecticidal effect, Test Example 3: rice lamina immersed; for Insecticidal effect, Test Example 3 / Insecticidal effect on rice leafroller (Test Example 3), judged grade: four days after inoculation; for Insecticidal effect (Test Example 3), judged from mortality / Insecticidal effect on rice leafroller (Test Example 3), judged grade: rice lamina dip; for Insecticidal effect (Test Example 3), judged from mortality: 4 days after inoculation; for Insecticidal effect on rice leafroller (Test Example 3), judged grade: third-instar larvae
In short: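 Insecticidal effect is judged by a predefined criterion from dead/alive counts four days after infesting air-dried lamina with third-instar larvae, kept on moistened filter paper at 25° C, 70% humidity.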

[4] = mortality judged by criterion of Test Example 1
[5] = common cutworm second-instar larvae
[6] = rice leafroller third-instar larvae
[7] = second-instar larvae of common cutworm
[8] = third-instar larvae of rice leafroller
[9] = judged by the mortality criterion of Test Example 1

SMILES	Insecticidal effect, Test Example 1 [1, 4]	Insecticidal effect, Test Example 2 [2, 5]	Insecticidal effect, Test Example 3 [3, 6]	also measured
CCOCCN(CCOCC)C(=O)c1c(I)cccc1C(=O)Nc1ccc(C(F)(F)C(F)(F)F)cc1C [compound 1046]	A (100)	A (100)	A (100)	–
CC(C)NC(=O)c1c(Cl)cccc1C(=O)Nc1ccc(C(F)(F)C(F)(F)F)cc1Cl [compound 1383]	A (100)	A (100)	A (100)	–
CCCNC(=O)c1c(I)cccc1C(=O)Nc1ccc(OC(F)F)cc1C [compound 1450]	–	–	–	Insecticidal effect (Test Example 1), judged from mortality [1]: A (100); Insecticidal effect (Test Example 2), judged from mortality [2, 7]: A (100); Insecticidal effect (Test Example 3), judged from mortality [3, 8]: A (100)
CC(C)(C)NC(=O)c1c(Cl)cccc1C(=O)Nc1ccc(OC(F)(F)F)cc1Cl [compound 1022]	A (100)	A (100)	A (100)	–
CCN(CC)C(=O)c1c(I)cccc1C(=O)Nc1ccc(OC(F)(F)F)cc1C [compound 1533]	–	–	–	Insecticidal effect (Test Example 1), judged from mortality [1]: A (100); Insecticidal effect (Test Example 2), judged from mortality [2, 7]: A (100); Insecticidal effect (Test Example 3), judged from mortality [3, 8]: A (100)
CC(C)(C)NC(=O)c1c(I)cccc1C(=O)Nc1ccc(OC(F)(F)F)cc1Cl [compound 1023]	A (100)	A (100)	A (100)	–
Cc1cc(OC(F)F)c(Cl)cc1NC(=O)c1c(I)cccc1C(=O)NC(C)C [compound 470]	–	–	–	Insecticidal effect on diamondback moth (Test Example 1), judged grade [1]: A (100); Insecticidal effect on common cutworm (Test Example 2), judged grade [2]: C (89-80); Insecticidal effect on rice leafroller (Test Example 3), judged grade [3]: C (89-80)
Cc1cc(C#N)ccc1NC(=O)c1cccc(I)c1C(=O)NC(C)C [compound 1389]	A (100)	A (100)	A (100)	–
Cc1cc(I)ccc1NC(=O)c1c(Br)cccc1C(=O)NC(C)C [compound 313]	–	–	–	Insecticidal effect, Test Example 1 [1, 9]: A (100); Insecticidal effect, Test Example 2 [2, 7]: A (100); Insecticidal effect, Test Example 3 [3, 8]: A (100)
CC(C)(C)NC(=O)c1c(Cl)cccc1C(=O)Nc1ccc(C(O)(C(F)(F)F)C(F)(F)F)cc1 [compound 1053]	A (100)	A (100)	A (100)	–
Cc1cc(OC(F)(F)F)ccc1NC(=O)c1cccc(I)c1C(=O)NC(C)(C)CCl [compound 1627]	–	–	–	Insecticidal effect (Test Example 1), judged from mortality [1]: A (100); Insecticidal effect (Test Example 2), judged from mortality [2, 7]: A (100); Insecticidal effect (Test Example 3), judged from mortality [3, 8]: A (100)
Cc1cc(C(F)(F)C(F)(F)F)ccc1NC(=O)c1cccc(C)c1C(=O)NC(C)(C)C [compound 955]	A (100)	A (100)	A (100)	–
COc1ccc(-c2ccccc2)cc1NC(=O)c1c(Cl)cccc1C(=O)NC(C)C [compound 1295]	A (100)	A (100)	A (100)	–
CC(C)NC(=O)c1c(C(=O)Nc2ccc3c(c2)OC(F)(F)C(F)(F)O3)cccc1[N+](=O)[O-] [compound 976]	A (100)	A (100)	A (100)	–
CC(C)NC(=O)c1c(Br)cccc1C(=O)Nc1ccc(OC(F)(F)F)cc1Br [compound 287]	–	–	–	Insecticidal effect, Test Example 1 [1, 9]: A (100); Insecticidal effect, Test Example 2 [2, 7]: A (100); Insecticidal effect, Test Example 3 [3, 8]: A (100)
CC(C)NC(=O)c1c(Cl)cccc1C(=O)Nc1ccc(C(F)(F)C(F)(F)F)cc1F [compound 1382]	A (100)	A (100)	A (100)	–

SMILES	Insecticidal effect, Test Example 1 [1, 4]	Insecticidal effect, Test Example 2 [2, 5]	Insecticidal effect, Test Example 3 [3, 6]	also measured
CNC(=O)c1c(I)cccc1C(=O)Nc1ccc(C(F)(F)C(F)(F)F)cc1C [compound 1311]	A (100)	A (100)	A (100)	–
CC(C)NC(=O)c1c(I)cccc1C(=O)Nc1ccc(C(F)(F)C(F)(F)F)cc1F [compound 1385]	A (100)	A (100)	A (100)	–
Cc1cc(C(F)(F)C(F)(F)F)ccc1NC(=O)c1cccc(Cl)c1C(=O)NC(C)CF (stereo not drawn) [compound 1651]	–	–	–	Insecticidal effect (Test Example 1), judged from mortality [1]: A (100); Insecticidal effect (Test Example 2), judged from mortality [2, 7]: A (100); Insecticidal effect (Test Example 3), judged from mortality [3, 8]: A (100)
COc1ccc(NC(=O)c2cccc([N+](=O)[O-])c2C(=O)NC(C)C)c(C)c1C [compound 689]	–	–	–	Insecticidal effect on diamondback moth (Test Example 1), judged grade [1]: A (100); Insecticidal effect on common cutworm (Test Example 2), judged grade [2]: D (79-50); Insecticidal effect on rice leafroller (Test Example 3), judged grade [3]: A (100)
CCc1cc(OC(F)(F)F)ccc1NC(=O)c1cccc(I)c1C(=O)N(CC)CC [compound 1212]	A (100)	A (100)	A (100)	–
CCN(CC)C(=O)c1c(Cl)cccc1C(=O)Nc1ccc(OC(F)(F)C(F)F)cc1C [compound 1539]	–	–	–	Insecticidal effect (Test Example 1), judged from mortality [1]: A (100); Insecticidal effect (Test Example 2), judged from mortality [2, 7]: A (100); Insecticidal effect (Test Example 3), judged from mortality [3, 8]: A (100)
Cc1ccc(Cl)cc1NC(=O)c1cccc(F)c1C(=O)NC(C)C [compound 491]	–	–	–	Insecticidal effect on diamondback moth (Test Example 1), judged grade [1]: A (100); Insecticidal effect on common cutworm (Test Example 2), judged grade [2]: A (100); Insecticidal effect on rice leafroller (Test Example 3), judged grade [3]: A (100)
CCCN(CCC)C(=O)c1c(I)cccc1C(=O)Nc1ccc(OC(F)(F)F)cc1C [compound 1156]	A (100)	A (100)	A (100)	–
Cc1cc(I)ccc1NC(=O)c1cccc(I)c1C(=O)NC(C)C [compound 367]	–	–	–	Insecticidal effect, Test Example 1 [1, 9]: A (100); Insecticidal effect, Test Example 2 [2, 7]: A (100); Insecticidal effect, Test Example 3 [3, 8]: A (100)
Cc1cc(C(F)(F)C(F)(F)F)ccc1NC(=O)c1cccc(I)c1C(=O)NCc1ccccc1 [compound 1400]	A (100)	A (100)	A (100)	–
CCN(CC)C(=O)c1c(I)cccc1C(=O)Nc1ccc(Cl)cc1C [compound 1557]	–	–	–	Insecticidal effect (Test Example 1), judged from mortality [1]: A (100); Insecticidal effect (Test Example 2), judged from mortality [2, 7]: A (100); Insecticidal effect (Test Example 3), judged from mortality [3, 8]: A (100)
Cc1cc(C(F)(C(F)(F)F)C(F)(F)F)ccc1NC(=O)c1cccc(C(F)(F)F)c1C(=O)NC(C)C [compound 1207]	A (100)	A (100)	A (100)	–
CC(C)(C)NC(=O)c1c(I)cccc1C(=O)Nc1ccc2oc(-c3ccc(C(F)(F)F)cc3)nc2c1 [compound 1174]	A (100)	A (100)	A (100)	–
Cc1cc(C(F)(F)C(F)(F)F)ccc1NC(=O)c1cccc(Cl)c1C(=O)NC(C)(C)C#Cc1ccc(F)cc1F [compound 1650]	–	–	–	Insecticidal effect (Test Example 1), judged from mortality [1]: A (100); Insecticidal effect (Test Example 2), judged from mortality [2, 7]: A (100); Insecticidal effect (Test Example 3), judged from mortality [3, 8]: A (100)
Cc1cc(C(F)(F)C(F)(F)F)ccc1NC(=O)c1cccc(F)c1C(=O)NC(C)C [compound 495]	–	–	–	Insecticidal effect on diamondback moth (Test Example 1), judged grade [1]: A (100); Insecticidal effect on common cutworm (Test Example 2), judged grade [2]: A (100); Insecticidal effect on rice leafroller (Test Example 3), judged grade [3]: A (100)
Cc1cc(C(F)(F)C(F)(F)F)ccc1NC(=O)c1cccc(I)c1C(=O)N(C(C)C)C(C)C [compound 1081]	A (100)	A (100)	A (100)	–

Source: patent US6362369B1, “Phthalic acid diamide derivatives fluorine-containing aniline compounds as starting material, agricultural and horticultural insecticides, and a method for application of the insecticides” (Nihon Nohyaku Co., Ltd., priority 1997, dated 2002)
